Assay results from ChEMBL document CHEMBL1201862, “PubChem BioAssay data set” (2004).
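48-hour exposure; five concentrations; linearly interpolated endpoints. GI50 marks 50% less growth.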 Calls of active or inactive are those of the source. Rule as the data show it: active = GI50 up to about 1.1 µM and inactive = higher.

What was measured:
Assay in all cases: growth of human tumour cells (NCI), 48 h
786-0 = test system: 786-0
A498 = test system: A498
A549 = test system: A549
ACHN = test system: ACHN
BT-549 = test system: BT-549
CAKI-1 = test system: CAKI-1
CCRF-CEM = test system: CCRF-CEM
COLO 205 = test system: COLO 205
DU-145 = test system: DU-145
EKVX = test system: EKVX
HCT-116 = test system: HCT-116
HCT-15 = test system: HCT-15
HL-60 = test system: HL-60
HOP-62 = test system: HOP-62
HT-29 = test system: HT-29
Hs-578T = test system: Hs-578T
IGROV-1 = test system: IGROV-1
K562 = test system: K562
KM12 = test system: KM12
LOX IMVI = test system: LOX IMVI
M14 = test system: M14
MCF7 = test system: MCF7
MDA-MB-231 = test system: MDA-MB-231
MDA-MB-435 = test system: MDA-MB-435
MDA-N = test system: MDA-N
MOLT-4 = test system: MOLT-4
Malme-3M = test system: Malme-3M
NCI-H23 = test system: NCI-H23
NCI-H460 = test system: NCI-H460
NCI-H522 = test system: NCI-H522
NCI/ADR-RES = test system: NCI/ADR-RES
OVCAR-3 = test system: OVCAR-3
OVCAR-4 = test system: OVCAR-4
OVCAR-5 = test system: OVCAR-5
OVCAR-8 = test system: OVCAR-8
PC-3 = test system: PC-3
RPMI-8226 = test system: RPMI-8226
RXF 393 = test system: RXF 393
SF-268 = test system: SF-268
SF-295 = test system: SF-295
SF-539 = test system: SF-539
SK-MEL-28 = test system: SK-MEL-28
SK-MEL-2 = test system: SK-MEL-2
SK-MEL-5 = test system: SK-MEL-5
SK-OV-3 = test system: SK-OV-3
SN12C = test system: SN12C
SNB-19 = test system: SNB-19
SNB-75 = test system: SNB-75
SR = test system: SR
SW-620 = test system: SW-620
T47D = test system: T47D
U-251 = test system: U-251
UACC-257 = test system: UACC-257
UACC-62 = test system: UACC-62
UO-31 = test system: UO-31
HCC 2998 = test system: HCC 2998
HOP-92 = test system: HOP-92
TK-10 = test system: TK-10
NCI-H226 = test system: NCI-H226

Measured: GI50

COc1nc(C#CC2CCCCC2)nc(OC)n1
inactive: 786-0 1.69 µM | A498 21.4 µM | A549 3.95 µM | ACHN 4.26 µM | BT-549 3.37 µM | CAKI-1 3.39 µM | CCRF-CEM 1.12 µM | COLO 205 6.1 µM | DU-145 3.92 µM | EKVX 16 µM | HL-60 1.12 µM | HOP-62 3.72 µM | HT-29 4.81 µM | Hs-578T 3.58 µM | IGROV-1 3.79 µM | K562 3.92 µM | KM12 4.76 µM | LOX IMVI 1.51 µM | M14 2.38 µM | MCF7 2.14 µM | MDA-MB-231 2.3 µM | MDA-MB-435 2.08 µM | MDA-N 3.28 µM | MOLT-4 2.98 µM | Malme-3M 1.95 µM | NCI-H23 1.45 µM | NCI-H460 5.6 µM | NCI-H522 1.59 µM | NCI/ADR-RES 1.64 µM | OVCAR-3 3.22 µM | OVCAR-4 5.42 µM | OVCAR-5 2.51 µM | OVCAR-8 1.61 µM | PC-3 4.21 µM | RPMI-8226 1.51 µM | RXF 393 4.91 µM | SF-268 4.07 µM | SF-295 5.24 µM | SF-539 2.45 µM | SK-MEL-28 8.18 µM | SK-MEL-2 3.81 µM | SK-MEL-5 3.06 µM | SK-OV-3 13.1 µM | SN12C 2.2 µM | SNB-19 16.6 µM | SNB-75 9.71 µM | SR 2.3 µM | SW-620 3.3 µM | T47D 31.7 µM | U-251 3.39 µM | UACC-257 11 µM | UACC-62 1.28 µM | UO-31 2.54 µM
1.38 µM: HCT-15
active: HCT-116 0.401 µM

CCCCOCOc1ccccc1P1(=O)COc2ccccc2OC1
87.1 µM: HCT-15
inactive: 786-0 > 100 µM | A549 88.5 µM | ACHN 86.7 µM | BT-549 41.5 µM | CAKI-1 > 100 µM | CCRF-CEM > 100 µM | COLO 205 63 µM | DU-145 > 100 µM | EKVX > 100 µM | HCC 2998 > 100 µM | HCT-116 62.5 µM | HL-60 34.7 µM | HOP-62 > 100 µM | HOP-92 74.1 µM | HT-29 > 100 µM | Hs-578T 54 µM | IGROV-1 > 100 µM | K562 52.2 µM | KM12 > 100 µM | LOX IMVI > 100 µM | M14 83.9 µM | MCF7 75 µM | MDA-MB-231 43.4 µM | MDA-MB-435 > 100 µM | MDA-N > 100 µM | Malme-3M > 100 µM | NCI-H23 > 100 µM | NCI-H460 58.3 µM | NCI/ADR-RES > 100 µM | OVCAR-3 68.7 µM | OVCAR-4 42.2 µM | OVCAR-5 > 100 µM | PC-3 55.3 µM | RPMI-8226 87.9 µM | RXF 393 37.8 µM | SF-268 > 100 µM | SF-295 60.5 µM | SF-539 > 100 µM | SK-MEL-28 > 100 µM | SK-MEL-2 > 100 µM | SK-MEL-5 > 100 µM | SK-OV-3 > 100 µM | SN12C > 100 µM | SNB-19 > 100 µM | SNB-75 > 100 µM | SR 37.1 µM | SW-620 > 100 µM | T47D 45.4 µM | TK-10 20.8 µM | U-251 > 100 µM | UACC-257 67.3 µM | UACC-62 66.2 µM | UO-31 38.7 µM

CCC(=O)n1c(=O)n(-c2ccc([N+](=O)[O-])cc2)c(=O)n1C(=O)CC
inactive: 786-0 > 100 µM | A549 > 100 µM | ACHN > 100 µM | BT-549 > 100 µM | CAKI-1 > 100 µM | CCRF-CEM > 100 µM | COLO 205 > 100 µM | DU-145 > 100 µM | EKVX > 100 µM | HCC 2998 > 100 µM | HCT-116 > 100 µM | HL-60 > 100 µM | HOP-62 > 100 µM | HT-29 > 100 µM | Hs-578T > 100 µM | IGROV-1 > 100 µM | K562 > 100 µM | KM12 > 100 µM | LOX IMVI > 100 µM | M14 > 100 µM | MCF7 > 100 µM | MDA-MB-231 > 100 µM | MDA-MB-435 > 100 µM | MDA-N > 100 µM | MOLT-4 > 100 µM | NCI-H226 > 100 µM | NCI-H23 > 100 µM | NCI-H460 > 100 µM | NCI-H522 > 100 µM | NCI/ADR-RES > 100 µM | OVCAR-3 > 100 µM | OVCAR-4 > 100 µM | OVCAR-5 > 100 µM | OVCAR-8 > 100 µM | PC-3 > 100 µM | RPMI-8226 > 100 µM | RXF 393 > 100 µM | SF-268 > 100 µM | SF-295 > 100 µM | SK-MEL-28 > 100 µM | SK-MEL-2 > 100 µM | SK-MEL-5 > 100 µM | SK-OV-3 > 100 µM | SN12C > 100 µM | SNB-19 > 100 µM | SNB-75 > 100 µM | SR > 100 µM | SW-620 > 100 µM | T47D > 100 µM | TK-10 > 100 µM | U-251 > 100 µM | UACC-257 > 100 µM | UACC-62 > 100 µM | UO-31 > 100 µM
> 100 µM: HCT-15
